One series concerns the target BRD4 (BD2) (Homo sapiens (Human), UniProt O60885). Description: In vitro BRD4 (BD2) enzymatic activity assay (HTRF). The format is binding. To be noted: GST-BRD4 (BD2, 349-460 aa). How it is done: In the present application, IC50 values of the compounds in inhibiting BRD4 (BD2) enzyme binding reaction were determined by homogeneous time resolved fluorescence (HTRF). A compound was serially diluted 5-fold with 100% DMSO starting from 1 mM (7 concentrations in total), and then 2 μL of the compound at each concentration was added to 18 μL of a reaction buffer (20 mM HEPES pH 7.5, 150 mM NaCl, 5 mM DTT, 0.005% Tween 20, and 100 μg/mL BSA) for dilution. After being mixed well, 2 μL of the compound at each concentration was added to 48 μL of the above reaction buffer for dilution, and mixed well (final concentration of the compound in DMSO: 0.1%). 2.5 μL of the resulting mixture was added to a 384-well plate (OptiPlate-384, purchased from PerkinElmer), then 5 μL of GST-BRD4 (BD2, 349-460 aa) (final concentration: 2 nM) was added, and the resulting mixture was centrifuged, and fully mixed. 2.5 μL of a peptide Biotin-AHA-SGRGK(Ac)GGK(Ac)GLGK(Ac)GGAK(Ac) RHRKV (final concentration: 200 nM) was then added to initiate the reaction (total reaction volume: 10 μL). The 384-well plate was placed in an incubator at 23° C. to react for 1 hour, and then 5 μL of Eu3+ cryptate-labled anti-GST antibody (purchased from Cisbio) and 5 μL of Streptavidin-XL-665 (purchased from Cisbio) were added to terminate the reaction. After being incubated in the incubator for another 1 hour, the fluorescence values (excited at 320 nm, emitted light at 665 nm and 620 nm being detected, and the ratio of the two being the enzyme binding signal) were read on Envision (purchased from PerkinElmer). The binding strength of each compound to BRD4 (BD2) protein was determined respectively at 7 concentrations, and the data were calculated using GraphPad Prism software to obtain the IC50 value of the compound.

The next series has as its system MV4-11 cells. Description: Cell proliferation activity assay in MV4-11. Format: cell-based. The conditions noted are these: Homo sapiens, inhibiting cell proliferation, 72 hours, Cell-Titer Blue. How it is done: (§1) Human acute lymphoblastic leukemia cell line MV4-11 cells were cultured in PRIM1640 medium plus 10% fetal bovine serum (FBS, purchased from Biological Industries, BI) and 1% penicillin/streptomycin double antibody (P/S, purchased from Life Technology) at 37° C. with 5% CO2. On the day before the compound test, MV4-11 cells were spread in a 96-well plate (purchased from Corning) at a concentration of 8000 cells/195 μL/well. After 24 hours, the compound was serially diluted 4-fold with 100% DMSO starting from 10 mM (9 concentrations in total), and then 2 μL of the compound at each concentration was added to 48 μL of PRIM1640 medium for dilution. 5 μL of the diluted compound at each concentration was added to the wells spread with the cell suspension, and the compound and cells were co-incubated in a cell incubator for 72 hours (3 days). Then the mixture was added with 35 μL of Cell-Titer Blue reagent (purchased from Promega) and incubated for another 4 hours. The fluorescence values (excited at 560 nm, detected at 590 nm) were then read on Flexstation III, and the data were calculated using GraphPad Prism software to give IC50 value of the compound in inhibiting cell proliferation.

In the next series the test system is Kasumi-1 cells. Description: Cell proliferation activity assay in Kasumi-1. The format is cell-based. To be noted: Homo sapiens, inhibiting cell proliferation, 72 hours, Cell-Titer Blue. How it is done: as §1, with “myeloblastic” for “lymphoblastic”, “Kasumi-1” for “MV4-11”, “20%” for “10%”, “5000” for “8000”
For the next series, the target named is BRD4 (BD1) (Homo sapiens (Human), UniProt O60885). Description: In vitro BRD4 (BD1) enzymatic activity assay (HTRF). The format is binding. The conditions noted are these: GST-BRD4 (BD1, 44-168 aa). How it is done:
In the present application, IC50 values of the compounds in inhibiting BRD4 (BD1) enzyme binding reaction were determined by homogeneous time resolved fluorescence (HTRF). A compounds was serially diluted 5-fold with 100% DMSO starting from 0.2 mM (7 concentrations in total), and then 2 μL of the compound at each concentration was added to 48 μL of a reaction buffer (20 mM HEPES pH 7.5, 150 mM NaCl, 5 mM DTT, 0.005% Tween 20, and 100 μg/mL BSA) for dilution, and mixed well. 2.5 μL of the resulting mixture was added to a 384-well plate (OptiPlate-384, purchased from PerkinElmer), then 5 μL of GST-BRD4 (BD1, 44-168 aa) (final concentration: 1 nM) was added, and the resulting mixture was centrifuged, and fully mixed. 2.5 μL of a short peptide Biotin-AHA-SGRGK(Ac)GGK(Ac)GLGK(Ac)GGAK(Ac) RHRKV (final concentration: 100 nM) was then added to initiate the reaction (total reaction volume: 10 μL). The 384-well plate was placed in an incubator at 23° C. to react for 1 hour, and then 5 μL of Eu3+ cryptate-labled anti-GST antibody (purchased from Cisbio) and 5 μL of Streptavidin-XL-665 (purchased from Cisbio) were added to terminate the reaction. After being incubated in the incubator for another 1 hour, the fluorescence values (excited at 320 nm, emitted light at 665 nm and 620 nm being detected, and the ratio of the two being the enzyme binding signal) were read on Envision (purchased from PerkinElmer). The binding strength of each compound to BRD4 (BD1) protein was determined respectively at 7 concentrations, and the data were calculated using GraphPad Prism software to obtain the IC50 value of the compound.

Series [1] in a line: Animal pharmacokinetic study on compounds. To be noted: rat, po; male rats, single intragastric administration, 5 mg/kg, plasma. The format is in vivo. As to the method:
Three healthy adult male rats that obtained from Beijing Vital River Laboratory Animal Technology Co., Ltd were used for the animal pharmacokinetic experiment. A compound was suspended in 2% absolute ethanol, 5% tween 80, 20% polyethylene glycol 400, and 73% (5% hydroxypropylmethyl cellulose in water) (V/V/V/V) at a concentration of 1 mg/mL. The administration volume was 5 mL/kg, and animals were treated with a single intragastric administration at a dose of 5 mg/kg. Animals were fasted overnight prior to the experiment, and the fasting time was from 10 hours before administration to 4 hours after administration. Blood was sampled at 0.25, 0.5, 1, 2, 4, 6, 8 and 24 hours after administration. Animals were lightly anesthetized with isoflurane, and approximately 0.4 mL of whole blood was collected from the orbital venous plexus using a glass blood collection tube, and placed in a heparin anticoagulation tube. The sample was centrifuged at 4200 rpm for 5 minutes at 4° C., and then the plasma was transferred to a centrifuge tube and stored at −80° C. until analyzed. In the plasma sample analysis, test compounds and internal standards (warfarin or propranolol) were extracted from rat plasma by acetonitrile protein precipitation, and the extracts were analyzed by LC/MS/MS. The measured plasma concentration-time data of the individual animals were analyzed using a non-compartmental model of WinNonlin (version no. 5.2.1; Pharsight) software to give pharmacokinetic parameters as shown in Table 3 below: the maximum (peak) plasma drug concentration Cmax; the time to peak Tmax; the half-life T1/2 and the area under the plasma concentration-time curve extrapolated to infinity AUC0-inf.

SMILES strings stand for the structures. pIC50: −log10 of the molar value.

Take `Cn1cc(-c2cc(N=S(C)(C)=O)cnc2Oc2ccc(F)cc2F)c2cc[nH]c2c1=O` [Example 4, 4-{2-(2,4-difluorophenoxy)-5-{[dimethyl(oxo)-λ^6-sulfanylidene]amino}-pyridin-3-yl}-6-methyl-1,6-dihydro-7H-pyrrolo[2,3-c]pyridin-7-one]: the pIC50 against BRD4 (BD2) was 9.46; in the series with MV4-11 cells, 8.08; in the series with Kasumi-1 cells, 8.36; on BRD4 (BD1), 9.03. Moreover, in series [1], the AUC(0-inf) worked out at 2300 ng·h/mL. Further, in series [1], the Cmax was 459 ng/mL. Further, in series [1], the Tmax amounted to 0.83 h. In addition, the half-life in series [1] is 2.94 h.

`Cn1cc(-c2cc(N=S(C)(C)=O)ccc2Oc2ccc(F)cc2F)c2cc[nH]c2c1=O` [Example 5, 4-{2-(2,4-difluorophenoxy)-5-{[dimethyl(oxo)-λ^6-sulfanylidene]amino}phenyl}-6-methyl-1,6-dihydro-7H-pyrrolo[2,3-c]pyridin-7-one] had a pIC50 on BRD4 (BD2) of 9.18. In the series with MV4-11 cells, the pIC50 is 8.01. In the series with Kasumi-1 cells, the negative-log IC50 (pIC50) was 7.81. At BRD4 (BD1), this molecule gave a pIC50 of 8.32. Also, in series [1], the AUC(0-inf) is 2690 ng·h/mL, the highest level (Cmax) was 610 ng/mL, the Tmax amounted to 1 h and the half-life is 2.9 h.

For `CCOC(=O)c1cc2c(-c3cc(N=S(C)(C)=O)ccc3Oc3c(C)cc(F)cc3C)cn(C)c(=O)c2[nH]1` [Example 14, Ethyl 4-{5-{[dimethyl(oxo)-λ^6-sulfanylidene]amino}-2-(4-fluoro-2,6-dimethylphenoxy)phenyl}-6-methyl-7-oxo-6,7-dihydro-1H-pyrrolo[2,3-c]pyridine-2-carboxylate], the pIC50 was 8.40 against BRD4 (BD2), 6.86 in the series on MV4-11 cells, 7.14 with Kasumi-1 cells and 7.55 against BRD4 (BD1).

Consider `Cn1cc(-c2cc(N=S(C)(C)=O)ccc2Oc2ccc(S(C)(=O)=O)cc2)c2cc[nH]c2c1=O` [Example 3, 4-{5-{[dimethyl(oxo)-λ^6-sulfanylidene]amino}-2-[4-(methylsulfonyl)phenoxy]phenyl}-6-methyl-1,6-dihydro-7H-pyrrolo[2,3-c]pyridin-7-one], for which the pIC50 against BRD4 (BD2) is 9.35; with MV4-11 cells, 7.51; with Kasumi-1 cells it was 6.81; against BRD4 (BD1) it was 8.11.

In the case of `Cn1cc(-c2cc(N=S(C)(C)=O)ccc2Nc2ccc(F)cc2F)c2cc[nH]c2c1=O` [Example 8, 4-{2-(2,4-difluorophenyl)amino-5-[dimethyl(oxo)-λ^6-sulfanylidene]aminophenyl}-6-methyl-1,6-dihydro-7H-pyrrolo[2,3-c]pyridin-7-one], the pIC50 against BRD4 (BD2) was 8.89; with MV4-11 cells, 7.79; in the series on Kasumi-1 cells, 8.03; against BRD4 (BD1), 8.62.

As to `Cn1cc(-c2nc(N=S(C)(C)=O)ccc2Oc2ccc(F)cc2F)c2cc[nH]c2c1=O` [Example 18, 4-{3-(2,4-difluorophenoxy)-6-{[dimethyl(oxo)-λ^6-sulfanylidene]amino}-pyridin-2-yl}-6-methyl-1,6-dihydro-7H-pyrrolo[2,3-c]pyridin-7-one], the negative logarithm of the IC50 (pIC50) is 8.50 with MV4-11 cells and 8.81 with Kasumi-1 cells. Besides, the half-life in series [1] is 5.25 h.

Regarding `Cn1cc(-c2cc(N=S(C)(C)=O)ncc2Oc2ccc(F)cc2F)c2cc[nH]c2c1=O` [Example 19, 4-{5-(2,4-difluorophenoxy)-2-{[dimethyl(oxo)-λ^6-sulfanylidene]amino}-pyridin-4-yl}-6-methyl-1,6-dihydro-7H-pyrrolo[2,3-c]pyridin-7-one], the pIC50 against BRD4 (BD2) was 9.21; in the series on MV4-11 cells it was 7.27; in the series with Kasumi-1 cells, 8.13; on BRD4 (BD1) it was 8.14.

Take `CCNC(=O)c1cc2c(-c3cc(N=S(C)(C)=O)ccc3Oc3c(C)cccc3Cl)cn(C)c(=O)c2[nH]1` [Example 7, 4-{2-(2-chloro-6-methylphenoxy)-5-{[dimethyl(oxo)-λ^6-sulfanylidene]amino}phenyl}-N-ethyl-6-methyl-7-oxo-6,7-dihydro-1H-pyrrolo[2,3-c]pyridine-2-carboxamide]: the pIC50 was 9.47 against BRD4 (BD2), 6.82 in the series with MV4-11 cells, 8.64 with Kasumi-1 cells and 7.61 against BRD4 (BD1).

Regarding `CCNC(=O)c1cc2c(-c3cc(N=S(C)(C)=O)ccc3Oc3c(C)cc(F)cc3C)cn(C)c(=O)c2[nH]1` [Example 10, 4-{5-{[dimethyl(oxo)-λ^6-sulfanylidene]amino}-2-(4-fluoro-2,6-dimethylphenoxy)phenyl}-N-ethyl-6-methyl-7-oxo-6,7-dihydro-1H-pyrrolo[2,3-c]pyridine-2-carboxamide], the pIC50 was 9.28 against BRD4 (BD2), 6.62 in the series with MV4-11 cells, 7.18 in the series with Kasumi-1 cells and 7.02 at BRD4 (BD1).
